A word on the melting point: it is the temperature of the solid-liquid transition.

`Cc1cccc(COCc2cccc(OCc3ccc4ccccc4n3)c2)c1C(=O)O` yielded a melting point of 39 to 65 °C.

As for `O=C(O)c1cn(-c2ccc(O)cc2)c2c(F)c(F)c(F)cc2c1=O`, the melting point is > 300 °C.

Take `CC(C)C[C@H](NC(=O)OCc1ccccc1)C(=O)N[C@@H](Cc1ccccc1)C(=O)CN1CCN(C)CC1`: the melting point fell in the range of 99 to 100 °C.

As for `CCOc1c(Nc2cc(C(F)(F)F)ccc2OC)c(=O)c1=O`, the melting point lay within 143 to 155 °C.

`OCC(O)CN1CCN(C(c2ccccc2)c2ccccc2)CC1` (centres undefined) came in with a melting point of 125 to 126 °C.

In turn, `CCCCc1nc2c(N)nc3ccccc3c2n1CCCNS(=O)(=O)c1cccc2c(N(C)C)cccc12` displayed a melting point of 216 to 218 °C.

As for `c1ccc(-c2nn3ccccc3c2-c2ccncc2)cc1`, the melting point lay within 166 to 167 °C.

The compound `NNc1nc(C(F)(F)F)nc(-c2ccccc2)c1-c1ccccc1` displayed a melting point of 182 to 186 °C.

With `Cc1nc(C)c(C)c(NCCNCC(O)COc2ccccc2)n1` (centres undefined), the melting point is 119 to 121 °C.

Regarding `Cc1cc(C)cc(-c2nc(NC(=O)C3CCCC3)sc2-c2ccncc2)c1`, the melting point fell in the range of 275 to 278 °C.

With `Cn1nnnc1-c1cn(C)c2cc(N3CCOCC3)ccc2c1=O`, the melting point lay within 235 to 238 °C.

Take `O=C(CCl)Cc1ccc(Cl)cc1`: the melting point lay in the range of 40.5 to 45.5 °C.

`CCOC(=O)c1cc2c3n(ccc-2n1)CC(C(OCC)OCC)=N3` showed a melting point of 242 to 244 °C.

`CCOC(=NC(=O)OC)NC(=O)Nc1ccc(Cl)cc1Cl` came in with a melting point of 92 to 93 °C.

In turn, `CN1CN(C)c2nc3n(Cc4ccccc4)c(=O)cc(O)n3c2C1=O` showed a melting point of 176 to 182 °C.

In turn, `CCC1NC(C(=O)O)Cc2c1[nH]c1ccccc21` (centres undefined) gave a melting point of 236 to 237 °C.

Turning to `CC[C@H]1[C@@H](O)CC(=O)N1c1ccc(C#N)c(Cl)c1F`, the melting point lay within 142 to 144 °C.

Turning to `Cc1ncccc1CC(=NC#N)NC1CCc2cc(F)ccc21` (centres undefined), the melting point fell in the range of 148 to 149 °C.

Compound `CN1Cc2ccc(NC(=O)N[C@@H]3c4cc(C#N)ccc4OC(C)(C)[C@H]3O)cc2C1` showed a melting point of 220 to 222 °C.

In the case of `CCn1c(C)c(C2(N(c3ccccc3)c3ccc(NC(C)=O)cc3)OC(=O)c3ccccc32)c2ccccc21` (centres undefined), the melting point was in the range of 93 to 116 °C.

Consider `CSCC(=O)Nc1cc(-c2c(-c3ccc(F)c(C)c3)nc3cccnn23)ccn1`, for which the melting point is 155 to 156 °C.

In the case of `OCc1ccc(C2=NOC(c3cc(Cl)cc(Cl)c3)(C(F)(F)F)C2)cc1` (centres undefined), the melting point lay in the range of 108 to 110 °C.

In turn, `CC(C)=CCOc1ccc2c(C)cc(=O)oc2c1C(=O)C=Cc1cccnc1` yielded a melting point of 156 to 157 °C.

Consider `CCOc1ccc(Br)c(F)c1Cl`, for which the melting point fell in the range of 65.4 to 66.1 °C.

For the compound `CSc1nc(N)c(N)c(N)n1`, the melting point was in the range of 180 to 182 °C.

In turn, `Cc1ccc(C(=O)N(C)Cc2cccc(-c3ccc(CC4SC(=O)NC4=O)cc3)c2)cc1` (centres undefined) yielded a melting point of 198 °C.

Consider `Cc1cc(C)nc(N(CCN(C(C)C)C(C)C)C(N)=O)n1`, for which the melting point was in the range of 134 to 136 °C.

`CCOC(=O)c1cc2cc(OC(F)(F)F)cc(N(C)S(=O)(=O)c3cccs3)c2[nH]1`: the melting point fell in the range of 149 to 150 °C.

Take `O=C(O)Cc1ccc(Cc2nc3c(F)c(F)cc(F)c3s2)s1`: the melting point fell in the range of 132 to 133 °C.

For `CC1(COc2ccc(OCCN3CC(COc4ccccc4)OC3=O)cc2)OCCO1` (centres undefined), the melting point lay within 75 to 77 °C.

For the compound `NS(=O)(=O)c1ccc(NN=C2C(=O)Nc3ccc(C(=O)NCCn4ccnc4)cc32)cc1`, the melting point is > 230 °C.

Consider `COc1ccc(-c2ocnc2-c2cc(OC)c(O)c(OC)c2)cc1O`, for which the melting point fell in the range of 144 to 146 °C.

`CCOC(=O)c1cnc2ccc(Cl)cc2c1-c1ccccc1`: the melting point is 123 to 124 °C.

The compound `O=C1Nc2cc(Cl)ccc2C(=O)C1c1cccs1` (centres undefined) displayed a melting point of 305 to 307 °C.

Compound `O=c1cc2sc3ccccc3nc-2c2ccccc12` showed a melting point of 176 to 177 °C.

Take `CC(=O)CCc1ccc2c(c1)Cc1ccccc1-2`: the melting point lay in the range of 99 to 101 °C.

In turn, `COc1cc(F)c(C=O)cc1O` yielded a melting point of 153 to 154 °C.

`CC(=O)OC(=Cc1ccccc1)c1ccc(OC(C)=O)c(OC(C)=O)c1[N+](=O)[O-]`: the melting point was 119 to 121 °C.

Turning to `COC(=N)c1ccc(-c2cc3ncn([C@H](C)[C@](O)(Cn4cncn4)c4ccc(F)cc4F)c(=O)c3s2)cc1`, the melting point lay in the range of 194 to 201 °C.

With `CCN(C(C)=O)c1cccc(-c2ccnc3c(Cl)cnn23)c1`, the melting point was in the range of 157 to 159 °C.

Turning to `O=c1c2cc(CBr)ccc2oc2ncccc12`, the melting point was 211 to 212 °C.

`CCN(CC)c1ccc(C(c2ccc(N(C)C)cc2C(=O)O)c2ccc(N(C)C)cc2N(C)C)cc1` (centres undefined): the melting point lay in the range of 128 to 130 °C.

Turning to `COc1nc2ncccc2c2nc(S(=O)(=O)Cl)nn12`, the melting point fell in the range of 172 to 174 °C.

The compound `CCCc1nc2c(N)nc(C)c(C)c2n1CCCCCS(=O)(=O)c1ccc(Cl)cc1` registered a melting point of 147 to 149 °C.

Consider `CCc1cc(F)cc2c1OCC(C)(C)CC2(O)c1ccccn1` (centres undefined), for which the melting point is 100 °C.

In turn, `CCNC(=O)c1c(Cl)cccc1[Si](C)(C)C` returned a melting point of 105 to 107 °C.

`NC(=O)CN1C(=O)COc2cc(F)c(N3C(=O)C4=C(CCCC4)C3=O)cc21` had a melting point of 283 to 286 °C.

Turning to `O=C(O)C1=Cc2cc(Cl)cc(C#Cc3ccc(Cl)cc3)c2OC1C(F)(F)F` (centres undefined), the melting point lay within 210 to 211 °C.

As to `CCc1cccc(Nc2nc(NCc3ccc(C)o3)nc(OCC(F)(F)F)n2)c1`, the melting point fell in the range of 55 to 57 °C.

Take `CCCCCCCCCc1ccc(C(=O)O)c(O)c1`: the melting point fell in the range of 94 to 97 °C.

Compound `CCOc1cc(N)ccn1` showed a melting point of 88 to 89 °C.

Turning to `O=c1[nH]c(-c2ccccc2)c(-c2ccccc2S(=O)(=O)NCCCBr)o1`, the melting point was in the range of 232 to 235 °C.

Compound `O=C1c2ccccc2S(=O)(=O)N1CCCCBr` registered a melting point of 72 °C.

As for `Nc1c([N+](=O)[O-])cc(F)c(F)c1Cl`, the melting point lay in the range of 86 to 88 °C.

`c1ccc(Nc2ncnc3[nH]ccc23)cc1` came in with a melting point of 234 to 236 °C.

Consider `O=C(Nc1cccc2c(=O)cc(C(=O)O)oc12)c1cc(Cl)c2c(c1)CC(CCCc1ccccc1)O2` (centres undefined), for which the melting point was in the range of 224 to 225 °C.

As to `CCCCCCCCCCCCCCCc1ccc2c(c1)C1(O)C(=O)c3ccccc3C1(O)O2` (centres undefined), the melting point lay in the range of 105 to 110 °C.

`O=c1[nH]nc2n1CCc1ccccc1C2` registered a melting point of 253 to 261 °C.

Regarding `COC(=O)CCc1ccc(CNC(=O)[C@@H]2Cc3ccccc3N2S(=O)(=O)c2ccc(C(C)(C)C)cc2)cc1`, the melting point worked out at 56 °C.

`CCC1(CCCCN2CCN(c3ccccn3)CC2)C(=O)Nc2ccc(Br)cc21` (centres undefined) yielded a melting point of 114 to 115 °C.

`O=C(O)CCCOc1cccc(OCc2ccccc2)c1` gave a melting point of 76 to 77 °C.

With `Cc1cc(Br)cnc1CCCCNC1=NS(=O)N=C1N` (centres undefined), the melting point fell in the range of 188 to 190 °C.

As for `COc1ccc(NC(=O)N(C)Cc2cccc3c2C(=O)N(C2CCC(=O)NC2=O)C3=O)cc1` (centres undefined), the melting point was 243 to 245 °C.

With `CCN(CC)CCOc1ccc(-c2oc3ccc(Cl)cc3c2C(=O)c2cc(C)cc(C)c2)cc1`, the melting point was in the range of 161 to 162 °C.

With `COC(=O)c1ccccc1Sc1ccccc1OC`, the melting point was in the range of 82 to 84 °C.

With `CCOC(=O)C(Cc1ccc(NCc2ccc3cc(OS(C)(=O)=O)ccc3c2)cc1)OC` (centres undefined), the melting point fell in the range of 94 to 96 °C.

Compound `Nc1ccc(CO)cc1[N+](=O)[O-]` had a melting point of 100 to 101 °C.

With `Cc1ccc2c(c1)[C@H](Nc1ncnc(NC(=O)C(F)(F)F)n1)[C@@H](C)C2`, the melting point lay within 55 to 58 °C.

Compound `CCn1c(=O)c2c(nc(/C=C/c3cc(OC)c(OC(=O)c4ccccc4)c(OC)c3)n2C)n(CC)c1=O` returned a melting point of 196 °C.

Regarding `CC(C)CN1C(=O)C(C)(C)C(=O)Nc2ccc(C#N)cc21`, the melting point is 219 to 220 °C.

For `Cc1cscc1NC(=S)Nc1cccc(Cl)c1N`, the melting point was 298 to 305 °C.

As for `CC(C)(CCCCCCCC(=O)CCCCCCCC(C)(C)C(=O)O)C(=O)O`, the melting point lay in the range of 74 to 77 °C.

With `O=C(N[C@H]1CN(Cc2ccccc2)[C@@H]2CCO[C@H]12)C(F)(F)F` (relative stereo), the melting point was 150 to 154 °C.

For `O=C1NC(Cc2ccc(OCc3ccccc3)cn2)C(=O)NC1Cc1ccc(OCc2ccccc2)cc1` (centres undefined), the melting point was 200 to 202 °C.

For the compound `CC(=CC#N)c1cc(-c2ccc(S(C)(=O)=O)cc2)c(-c2ccc(F)cc2)s1`, the melting point is 150 to 154 °C.

`COc1ccc(C(=O)Nc2ccc3ccc(CO)nc3n2)cc1` had a melting point of 212 °C.

With `CN(C)C=CC(=O)c1ccccc1[N+](=O)[O-]`, the melting point is 118 to 121 °C.

The compound `CN1CCN(c2nccnc2Cl)CC1` gave a melting point of 34 to 36 °C.

The compound `NS(=O)(=O)c1ccc(-c2cn(-c3nc(-c4ccc(C(F)(F)F)cc4)cc(C(F)(F)F)n3)cn2)s1` returned a melting point of 281 °C.

As for `CCN(CC)C(=O)c1nc2cnn(CC)c2nc1-c1ccccc1`, the melting point was in the range of 111 to 112 °C.

On to `Cc1ccc(S(=O)(=O)Nc2c(CCCCCCC(=O)O)ccc3ccccc23)cc1`, for which the melting point fell in the range of 128 to 133 °C.

The compound `Cn1c(COc2nn3c(-c4ccccc4F)nncc3c2-c2ccccc2F)nc2ccccc21` returned a melting point of 218 to 220 °C.

In turn, `COc1ccc(-c2cc(CCC(=O)O)sc2-c2ccc(OC)cc2)cc1` yielded a melting point of 96 °C.

The compound `COC(=O)c1ccc2[nH]c(=O)n(CCCCN3CC=C(c4ccccc4)CC3)c(=O)c2c1` came in with a melting point of 138 °C.

The compound `O=S1(=O)NCN(C2CCCCCC2)c2ccc(Cl)cc21` displayed a melting point of 216 to 218 °C.

Compound `CCCc1c(CS(=O)Cc2ccc(-c3nnn[nH]3)cc2)ccc(C(C)=O)c1O` (centres undefined) yielded a melting point of 112 to 116 °C.

Regarding `COc1ccc(C(=O)c2cccc(OCc3nc(-c4ccccc4)oc3C)c2)c(OCCOC(C)=O)c1`, the melting point is 90 to 91 °C.

Compound `CCN1C(=O)c2cccnc2Nc2cccc(C)c21` showed a melting point of 186 to 188 °C.

The compound `CCCn1nc(-c2ccc(OC)cc2)cc(C(=O)OC)c1=O` gave a melting point of 105 to 106 °C.

The values above are taken from a melting point compilation (Tetko et al.; mined from patent text by program, amines drawn as free bases though some values may be those of a salt).
